Results reported in paper PMC12504763, “Antiproliferation, 3D-multicellular spheroid and VEGFR-2 inhibitory properties of spiroindolin-2-ones with phosphonate function” (Scientific Reports, 2025).
Like-named read-outs stand apart in the source and are kept apart here.

What was measured:
[1] = tested on: HCT116 (colon) cancer cell line; assay: 2D-monolayer antiproliferation (MTT) against HCT116; type: cell-based, human; details: for IC50: Homo sapiens, HCT-116; for SI (selectivity index) HCT116: IC50 of RPE1 normal cell/IC50 of HCT116
[2] = tested on: PaCa2 (pancreatic) cancer cell line; assay: 2D-monolayer antiproliferation (MTT) against PaCa2; type: cell-based, human; details: for 1/(observed property): 1/observed IC50 (μM), PaCa2; for IC50: Homo sapiens, PaCa-2, MTT, 72 h incubation, PaCa2 pancreatic, read-out: IC50, μM ± SEM PaCa2; for SI (selectivity index) PaCa2: IC50 of RPE1 normal cell/IC50 of PaCa2
[3] = tested on: MCF7 (breast) cancer cell line; assay: 2D-monolayer antiproliferation (MTT) against MCF7; type: cell-based, human; details: for IC50: Homo sapiens, MTT, 72 h incubation, MCF7 breast, read-out: IC50, μM ± SEM MCF7; for SI (selectivity index) MCF7: IC50 of RPE1 normal cell/IC50 of MCF7
[4] = tested on: A549 (lung) cancer cell line; assay: 2D-monolayer antiproliferation (MTT) against A549; type: cell-based, human; details: for IC50: Homo sapiens, MTT, 72 h incubation, A549 lung, read-out: IC50, μM ± SEM A549; for SI (selectivity index) A549: IC50 of RPE1 normal cell/IC50 of A549
[5] = tested on: RPE1 (normal human immortalized retinal pigment epithelial cell line); assay: cells; type: cell-based; details: for IC50: Homo sapiens, RPE-1, MTT, normal RPE1 cell, read-out: IC50, μM ± SEM RPE1; for selectivity index (SI): IC50 against RPE1 compared to the tested cancer cell line(s), in words
VEGFR-2 [6] = biological target: T1, VEGFR-2 (Homo sapiens, UniProt P35968); assay: cell-based; type: cell-based; details: for inhibition at 10 µM: HCT-116, HCT116; for VEGFR-2 pg/mL ± SEM HCT116: at 10 μM, control 317.80 ± 3.5
T1 construct: endogenous in cells; host or cells: HCT116, PaCa2, MCF7 (human cancer cell lines, ATCC origin)
T1 sequence (P35968 20-1356): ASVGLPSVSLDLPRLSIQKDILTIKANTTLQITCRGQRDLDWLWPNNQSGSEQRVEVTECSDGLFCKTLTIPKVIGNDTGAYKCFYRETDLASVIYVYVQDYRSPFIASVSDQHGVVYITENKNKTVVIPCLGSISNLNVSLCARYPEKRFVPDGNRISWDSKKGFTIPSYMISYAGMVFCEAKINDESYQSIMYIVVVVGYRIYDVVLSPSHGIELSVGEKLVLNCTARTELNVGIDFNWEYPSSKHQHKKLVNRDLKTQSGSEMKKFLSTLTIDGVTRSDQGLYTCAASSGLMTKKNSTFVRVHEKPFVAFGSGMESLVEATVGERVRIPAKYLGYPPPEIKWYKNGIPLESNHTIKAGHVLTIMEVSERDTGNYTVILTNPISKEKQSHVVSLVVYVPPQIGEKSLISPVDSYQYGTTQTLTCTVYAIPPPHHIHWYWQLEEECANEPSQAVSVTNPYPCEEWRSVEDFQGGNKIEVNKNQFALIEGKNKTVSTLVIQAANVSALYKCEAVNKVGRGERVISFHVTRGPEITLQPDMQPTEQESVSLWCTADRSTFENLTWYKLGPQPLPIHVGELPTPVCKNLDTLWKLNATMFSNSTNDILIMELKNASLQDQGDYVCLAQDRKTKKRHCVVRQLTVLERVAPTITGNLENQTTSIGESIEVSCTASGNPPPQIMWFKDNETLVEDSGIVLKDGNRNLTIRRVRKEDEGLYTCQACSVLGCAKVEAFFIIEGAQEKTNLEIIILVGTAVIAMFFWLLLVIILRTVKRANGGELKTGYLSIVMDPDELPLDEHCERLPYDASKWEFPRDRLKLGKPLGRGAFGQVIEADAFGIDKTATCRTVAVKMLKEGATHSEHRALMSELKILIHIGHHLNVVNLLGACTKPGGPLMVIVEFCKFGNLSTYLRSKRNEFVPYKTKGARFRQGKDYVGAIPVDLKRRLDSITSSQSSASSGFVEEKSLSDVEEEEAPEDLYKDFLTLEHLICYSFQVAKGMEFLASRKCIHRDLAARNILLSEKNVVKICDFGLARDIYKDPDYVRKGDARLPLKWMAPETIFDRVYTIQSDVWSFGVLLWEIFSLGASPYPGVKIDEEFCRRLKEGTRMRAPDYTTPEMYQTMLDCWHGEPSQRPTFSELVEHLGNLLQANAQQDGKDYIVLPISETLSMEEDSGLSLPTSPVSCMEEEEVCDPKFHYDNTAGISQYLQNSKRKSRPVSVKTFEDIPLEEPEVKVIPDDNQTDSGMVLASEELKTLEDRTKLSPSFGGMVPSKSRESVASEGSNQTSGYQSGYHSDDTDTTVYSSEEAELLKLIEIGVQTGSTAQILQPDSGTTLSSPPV

VEGFR-2 [7] = biological target: T1, VEGFR-2; assay: cell-based; type: cell-based; details: for inhibition at 10 µM: PaCa-2, PaCa2; for VEGFR-2 pg/mL ± SEM PaCa2: at 10 μM, control 326.80 ± 1.9
VEGFR-2 [8] = biological target: T1, VEGFR-2; assay: cell-based; type: cell-based; details: for inhibition at 10 µM: MCF7; for VEGFR-2 pg/mL ± SEM MCF7: at 10 μM, control 258.70 ± 2.3
COX-1 = biological target: T2, COX-1 (Ovis aries, UniProt P05979); assay: biochemical; details: 3 replicates, read-out: % Inhibition of COX-1 ± SEM
T2 construct: purchased BioVision incorporated USA K548–100
T2 sequence (P05979 25-600): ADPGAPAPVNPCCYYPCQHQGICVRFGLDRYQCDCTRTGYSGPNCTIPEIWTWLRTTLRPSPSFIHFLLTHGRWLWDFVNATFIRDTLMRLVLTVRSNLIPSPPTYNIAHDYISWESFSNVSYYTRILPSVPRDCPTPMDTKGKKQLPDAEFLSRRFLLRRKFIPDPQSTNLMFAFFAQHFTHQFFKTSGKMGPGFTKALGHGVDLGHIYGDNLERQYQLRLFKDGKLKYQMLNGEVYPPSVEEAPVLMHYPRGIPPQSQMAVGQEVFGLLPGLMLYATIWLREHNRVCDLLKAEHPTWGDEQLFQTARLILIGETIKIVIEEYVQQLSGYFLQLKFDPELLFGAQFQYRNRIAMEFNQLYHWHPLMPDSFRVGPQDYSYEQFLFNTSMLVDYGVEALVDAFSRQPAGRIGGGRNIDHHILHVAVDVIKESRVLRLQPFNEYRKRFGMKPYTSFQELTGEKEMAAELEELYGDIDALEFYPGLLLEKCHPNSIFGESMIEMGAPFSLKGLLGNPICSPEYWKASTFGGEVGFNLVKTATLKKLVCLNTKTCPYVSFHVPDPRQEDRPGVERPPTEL

COX-2 = biological target: T3, COX-2 (Homo sapiens, UniProt P35354); assay: biochemical; details: for inhibition at 10 µM: 3 replicates, read-out: % Inhibition of COX-2 ± SEM; for SI (selectivity index, COX-2/COX-1): at 10 μM
T3 construct: purchased BioVision incorporated USA K548–100
T3 sequence (P35354 18-604): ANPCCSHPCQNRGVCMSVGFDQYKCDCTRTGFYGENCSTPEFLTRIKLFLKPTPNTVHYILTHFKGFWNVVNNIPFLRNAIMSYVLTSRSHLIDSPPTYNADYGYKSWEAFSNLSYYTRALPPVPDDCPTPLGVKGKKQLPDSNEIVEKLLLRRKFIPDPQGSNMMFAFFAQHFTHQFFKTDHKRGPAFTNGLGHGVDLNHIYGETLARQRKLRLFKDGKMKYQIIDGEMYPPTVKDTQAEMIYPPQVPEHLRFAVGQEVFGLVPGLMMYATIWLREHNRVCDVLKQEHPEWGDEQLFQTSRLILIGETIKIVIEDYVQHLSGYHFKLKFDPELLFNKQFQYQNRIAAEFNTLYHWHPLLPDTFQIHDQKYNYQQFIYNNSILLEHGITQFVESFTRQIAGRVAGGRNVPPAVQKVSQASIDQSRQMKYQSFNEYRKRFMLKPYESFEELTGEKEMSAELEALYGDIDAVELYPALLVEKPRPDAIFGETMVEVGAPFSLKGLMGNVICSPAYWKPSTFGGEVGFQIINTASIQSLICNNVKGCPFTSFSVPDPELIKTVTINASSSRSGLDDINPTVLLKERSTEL

TNF-α [9] = assay: TNF-α inhibitory properties (ELISA), HCT116 cell lysate; type: cell-based, human; details: at 10 μM; for TNF-α pg/mL (± SEM) HCT116: control 95.74 ± 0.5
TNF-α [10] = assay: TNF-α inhibitory properties (ELISA), PaCa2 cell lysate; type: cell-based, human; details: at 10 μM; for TNF-α pg/mL (± SEM) PaCa2: control 111.8 ± 2.0
TNF-α [11] = assay: TNF-α inhibitory properties (ELISA), MCF7 cell lysate; type: cell-based, human; details: at 10 μM; for TNF-α pg/mL (± SEM) MCF7: control 83.26 ± 1.1
[12] = MTT, 72 h incubation, HCT116 colon, read-out: IC50, μM ± SEM HCT116
[13] = log of observed IC50 (μM), HCT116, read-out: Log(observed property) (converted)

With `CCOP(=O)(OCC)N1C/C(=C\c2cccs2)C(=O)C2(C1)C(c1cccs1)CN(C)C21C(=O)Nc2ccc(F)cc21` (stereo not shown) [Compound 17r, Diethyl (E)-(5-fluoro-1′-methyl-2,4′′-dioxo-4′-(thiophen-2-yl)-5′′-(thiophen-2-ylmethylene)dispiro[indoline-3,2′-pyrrolidine-3′,3′′-piperidin]-1′′-yl)phosphonate] the IC50 [1, 12] was 7.67 ± 0.379 µM, the IC50 [1, 13] was 7.67 µM and the “SI (selectivity index) HCT116” value [1] was 2.2. For the same compound, the “1/(observed property)” value [2] was 0.1206, the IC50 [2] was 8.29 ± 0.497 µM and the “SI (selectivity index) PaCa2” value [2] was 2.1. For the same compound, the IC50 [3] was 6.22 ± 0.082 µM, the “SI (selectivity index) MCF7” value [3] was 2.7 and the IC50 [4] was 14.18 ± 0.135 µM. The “SI (selectivity index) A549” value [4] was 1.2, the IC50 [5] was 17 ± 0.557 µM and the inhibition at 10 µM (VEGFR-2 [6]) was 78.8%. The “VEGFR-2 pg/mL ± SEM HCT116” value (VEGFR-2 [6]) was 67.34 ± 0.4 pg/mL, the inhibition at 10 µM (VEGFR-2 [7]) was 79.6% and the “VEGFR-2 pg/mL ± SEM PaCa2” value (VEGFR-2 [7]) was 66.53 ± 0.8 pg/mL. For the same compound, the inhibition at 10 µM (VEGFR-2 [8]) was 67.4%, the “VEGFR-2 pg/mL ± SEM MCF7” value (VEGFR-2 [8]) was 84.30 ± 1.0 pg/mL and the inhibition at 10 µM (COX-1) was 55.5 ± 2.6%. For the same compound, the inhibition at 10 µM (COX-2) was 51.8 ± 2%, the “SI (selectivity index, COX-2/COX-1)” value (COX-2) was 1.09 and the “TNF-α pg/mL (± SEM) HCT116” value (TNF-α [9]) was 27.45 ± 1.4 pg/mL. The “TNF-α % inhibition PaCa2” value (TNF-α [10]) was 75.4%, the “TNF-α pg/mL (± SEM) PaCa2” value (TNF-α [10]) was 27.5 ± 0.5 pg/mL and the “TNF-α % inhibition MCF7” value (TNF-α [11]) was 69.4%. The “TNF-α pg/mL (± SEM) MCF7” value (TNF-α [11]) was 25.46 ± 0.9 pg/mL.

With `CCOP(=O)(OCC)N1C/C(=C\c2ccc(C)cc2)C(=O)C2(C1)C(c1ccc(C)cc1)CN(C)C21C(=O)Nc2ccc(Cl)cc21` (stereo not shown) [Compound 17o, Diethyl (E)-[5-chloro-1′-methyl-5′′-(4-methylbenzylidene)-2,4′′-dioxo-4′-(p-tolyl)dispiro[indoline-3,2′-pyrrolidine-3′,3′′-piperidin]-1′′-yl]phosphonate] the IC50 [1, 12] was 3.76 ± 0.064 µM, the IC50 [1, 13] was 3.76 µM and the “SI (selectivity index) HCT116” value [1] was > 13.3. The “1/(observed property)” value [2] was 0.1594, the IC50 [2] was 6.27 ± 0.148 µM and the “SI (selectivity index) PaCa2” value [2] was > 8.0. For the same compound, the IC50 [3] was 4.67 ± 0.086 µM, the “SI (selectivity index) MCF7” value [3] was > 10.7 and the IC50 [4] was 36 ± 1.15 µM. The “SI (selectivity index) A549” value [4] was > 1.3, the IC50 [5] was > 50 µM and the “selectivity index (SI)” value [5] was “high selectivity index”. The inhibition at 10 µM (VEGFR-2 [6]) was 84.8%, the “VEGFR-2 pg/mL ± SEM HCT116” value (VEGFR-2 [6]) was 48.40 ± 0.6 pg/mL and the inhibition at 10 µM (VEGFR-2 [7]) was 90.3%. The “VEGFR-2 pg/mL ± SEM PaCa2” value (VEGFR-2 [7]) was 31.64 ± 1.9 pg/mL, the inhibition at 10 µM (VEGFR-2 [8]) was 85% and the “VEGFR-2 pg/mL ± SEM MCF7” value (VEGFR-2 [8]) was 38.70 ± 0.4 pg/mL. For the same compound, the inhibition at 10 µM (COX-1) was 61.7 ± 3.4%, the inhibition at 10 µM (COX-2) was 59.3 ± 2.4% and the “SI (selectivity index, COX-2/COX-1)” value (COX-2) was 1.14. For the same compound, the “TNF-α % inhibition HCT116” value (TNF-α [9]) was 9.8%, the “TNF-α pg/mL (± SEM) HCT116” value (TNF-α [9]) was 86.34 ± 0.9 pg/mL and the “TNF-α % inhibition PaCa2” value (TNF-α [10]) was 14.5%. For the same compound, the “TNF-α pg/mL (± SEM) PaCa2” value (TNF-α [10]) was 95.6 ± 2.2 pg/mL, the “TNF-α % inhibition MCF7” value (TNF-α [11]) was 1.7% and the “TNF-α pg/mL (± SEM) MCF7” value (TNF-α [11]) was 81.85 ± 3.1 pg/mL.

`CCOP(=O)(OCC)N1C/C(=C\c2ccc(Cl)cc2)C(=O)C2(C1)C(c1ccc(Cl)cc1)CN(C)C21C(=O)Nc2ccc(Cl)cc21` (stereo not shown) [Compound 17j, Diethyl (E)-[5-chloro-5′′-(4-chlorobenzylidene)-4′-(4-chlorophenyl)-1′-methyl-2,4′′-dioxodispiro[indoline-3,2′-pyrrolidine-3′,3′′-piperidin]-1′′-yl]phosphonate] was tested, and the IC50 [1, 12] was 3.487 ± 0.033 µM, the IC50 [1, 13] was 3.49 µM and the “SI (selectivity index) HCT116” value [1] was > 14.3. For the same compound, the “1/(observed property)” value [2] was 0.1443, the IC50 [2] was 6.93 ± 0.337 µM and the “SI (selectivity index) PaCa2” value [2] was > 7.2. The IC50 [3] was 3.87 ± 0.102 µM, the “SI (selectivity index) MCF7” value [3] was > 12.9 and the IC50 [4] was 6.06 ± 0.157 µM. For the same compound, the “SI (selectivity index) A549” value [4] was > 8.3, the IC50 [5] was > 50 µM and the “selectivity index (SI)” value [5] was “high selectivity index”. For the same compound, the inhibition at 10 µM (VEGFR-2 [6]) was 80.3%, the “VEGFR-2 pg/mL ± SEM HCT116” value (VEGFR-2 [6]) was 62.50 ± 0.7 pg/mL and the inhibition at 10 µM (VEGFR-2 [7]) was 92.4%. For the same compound, the “VEGFR-2 pg/mL ± SEM PaCa2” value (VEGFR-2 [7]) was 24.78 ± 0.3 pg/mL, the inhibition at 10 µM (VEGFR-2 [8]) was 82.7% and the “VEGFR-2 pg/mL ± SEM MCF7” value (VEGFR-2 [8]) was 44.80 ± 0.6 pg/mL. For the same compound, the inhibition at 10 µM (COX-1) was 48.9 ± 1.5%, the inhibition at 10 µM (COX-2) was 53.5 ± 2.3% and the “SI (selectivity index, COX-2/COX-1)” value (COX-2) was 1.05. The “TNF-α % inhibition HCT116” value (TNF-α [9]) was 14.6%, the “TNF-α pg/mL (± SEM) HCT116” value (TNF-α [9]) was 81.78 ± 1.4 pg/mL and the “TNF-α % inhibition PaCa2” value (TNF-α [10]) was 11.9%. For the same compound, the “TNF-α pg/mL (± SEM) PaCa2” value (TNF-α [10]) was 98.5 ± 3.1 pg/mL, the “TNF-α % inhibition MCF7” value (TNF-α [11]) was 0.5% and the “TNF-α pg/mL (± SEM) MCF7” value (TNF-α [11]) was 82.87 ± 4.5 pg/mL.
